What was measured:
[1] = tested on: HT1080 cells; test: Intracellular uptake amount of MEND (NBD-DOPE labeled lipid, FACS); format: cell-based; conditions: NBD-DOPE label, lipid 27.5 nmol/well, 1 hr, DMEM (FBS+)
Procedure: Using B-2 (Example 1), B-2-1 (Comparative Example 1), and DODAP (Comparative Example 2) as cationic lipids, MENDs having a composition of cationic lipid:SOPE:Chol=3:4:3 were prepared by the method described in [Experimental Example 1] (2). For the preparation, PEG2000DSG was used as PEG lipid, and MEND solutions corresponding to 0.55 mM of the lipid concentration were prepared. For cationic MEND, lipids having a composition of DOTAP (Comparative Example 3):DOPE:Chol:=3:4:3 were used, and the cationic MEND was prepared according to the method described in [Experimental Example 1] (3). The lipids of various MENDs were labeled with fluorescence according to the method described in [Experimental Example 1] (5).
HT1080 cells were plated on a 6-well plate at 2×10^5 cells/2 mL/well 24 hr before, various sample MENDs were diluted with DMEM (FBS+) to a lipid concentration of 27.5 nmol/l mL/well and transfected into the well. After 1 hr, MEND-containing DMEM was removed, and the cells were washed twice with heparin (20 units/mL, 1 mL), and further once with PBS(−) (1 mL). 0.05% Trypsin solution (500 μL) was added, and the mixture was stood in an incubator at 37° C. for 3 min. […] The suspension was passed through a 44 μm nylon mesh immediately before the measurement, and the fluorescence intensity of intracellular NBD was measured.

[2] = tested on: HT1080 cells; test: Intracellular uptake pathway: influence of sucrose, amiloride, filipin on gene expression activity; format: cell-based; conditions: 0.3M sucrose, 1.5 mM amiloride
Procedure: Using compositions of B-2-4 (Example 4):DOPE:Chol=3:3:4, B-2 (Example 1):SOPE:Chol=5:3:2 as lipid, MENDs were prepared according to [Experimental Example 1] (1), (2). For the preparation, PEG2000-DMG was used as PEG lipid, and MEND solutions corresponding to 0.55 mM of the lipid concentration were prepared.
HT1080 cells were plated on a 24-well plate at 4×10^4 cells/500 μL/well 24 hr before. The medium was changed to DMEM (FBS+) containing filipin at a final concentration of […] 30 min before transfection. The medium was changed to DMEM (FBS+) containing a final concentration of 0.3M sucrose, and 1.5 mM amiloride 15 min before transfection. For transfection, various MENDs were added to the well at 0.8 μg/500 μL/well based on the pDNA amount. Thereafter, the gene expression activity was evaluated by the method described in [Experimental Example 4] (2).

[3] = Electron microscope observation by staining method; format: physicochemical; conditions: phosphotungstic acid staining
Procedure: MENDs of B-2 (Example 1) and B-2-4 (Example 4) were prepared according to [Experimental Example 1] (1), (2) and [Experimental Example 15]. For the preparation, PEG2000-DMG was used as PEG lipid, and MEND solutions corresponding to 1.38 mM of the lipid concentration were prepared. A 50% sucrose solution (pH 5.3) (5 mL) was added to a centrifugation tube, on which a 10% sucrose solution (pH 5.3) (5 mL) was layered, and a MEND solution (1.5 mL) was further overlaid to form an discontinuous density gradient. Purification was performed by ultracentrifugation (110000 g, 2 h, 25° C.) (Optima™ L-90K Ultracentrifuge, Sw41Ti, BECKMAN). The interface (4 ml) of sucrose density 10% and 50% was recovered, and sucrose was removed by ultrafiltration (1000 g, 3 min, 25° C.) to give a sample solution. A 2-fold diluted sample solution was adsorbed to a 400 mesh carbon film TEM grid, which was absorbed by a filter paper. A 2% phosphotungstic acid solution (pH 7.0) was added and the mixture was stood for 10 seconds. For observation, a transmission electron microscope (JEM-1200EX, JEOL Ltd.) was used. Accelerating voltage was set to 80 kV, and images were taken by a CCD camera (VELETA, JEOL Ltd.).

[4] = tested on: HT1080 cells; test: Intracellular kinetics (nuclear transport), confocal microscopy; format: cell-based; conditions: 3 hr after transfection
Text: For MEND preparation, Rhodamine-labeled pDNA prepared by the method of [Experimental Example 1] (4) was used. For preparation of MEND encapsulating the rhodamine-labeled pDNA, the pDNA solution described in [Experimental Example 1] (1) was completely replaced by rhodamine-labeled pDNA. In addition, the lipid constituting MEND was labeled with fluorescence by the method described in [Experimental Example 1] (3). MENDs having a composition of B-2-4 (Example 4):DOPE:Chol=3:3:4, B-2 (Example 1):SOPE:Chol=5:3:2 were prepared by the method described in [Experimental Example 1] (2). For the preparation, PEG2000-DMG was used as PEG lipid, and MEND solutions corresponding to 0.55 mM of the lipid concentration were prepared.
HT1080 cells were plated on a glass bottom dish at 5×10^4 cells/2 mL/dish 24 hr before. MEND was diluted with DMEM (FBS 10%+) to achieve pDNA 1.6 μg/2 mL and transfected into cells. After 3 hr, hoechst33342 (1 μL) was added and, 10 min later, the cells were washed twice with heparin solution (20 units/mL, 2 mL). Krebs buffer (1 mL) was added, and the image was obtained by a confocal laser scan microscope.

SMILES	intracellular uptake amount of MEND [1]	gene expression with sucrose, amiloride, filipin [2]	structure of MEND by transmission electron microscope [3]	intracellular localization [4]
CCCCCCCC/C=C\CCCCCCCC(=O)OCC(CN(C)C)OC(=O)CCCCCCC/C=C\CCCCCCCC (centres unmarked) [DODAP, reference compound]	extremely low as compared to the MENDs using B-2-1 and DOTAP	–	–	–
CC1=C(/C=C/C(C)=C/C=C/C(C)=C/C(=O)OCCCN(C)CCSSCCN(C)CCCOC(=O)/C=C(C)/C=C/C=C(C)/C=C/C2=C(C)CCCC2(C)C)C(C)(C)CCC1 [Example B-2-4]	–	inhibited by amiloride	structure coated with a monolayer lipid membrane	accumulate near the nucleus
CCCCCCCCCCCCCC(=O)OCCCN(C)CCSSCCN(C)CCCOC(=O)CCCCCCCCCCCCC [Example B-2]	extremely low as compared to the MENDs using B-2-1 and DOTAP	inhibited by sucrose and amiloride	structure coated with a monolayer lipid membrane	diffused in the cell

Reference: patent US9708628B2, “Cationic lipid having improved intracellular kinetics” (NOF CORPORATION, priority 2011, dated 2017)
